How the values were obtained:
Format in all cases: functional
Staphylococcus aureus [1] = assay: Antimicrobial activity against NorA Staphylococcus aureus in combination with Ciprofloxacin and 10 ug/mL of compound 4 (alone MIC= 0.2 ug/mL)
Bacillus subtilis [2] = assay: Antimicrobial activity against Bacillus subtilis in combination with Rhein and 10 ug/mL of compound 4 (alone MIC= 16 ug/mL)
Bacillus subtilis [3] = assay: Antimicrobial activity against Bacillus subtilis in combination with Ciprofloxacin and 10 ug/mL of compound 4 (alone MIC= 0.8 ug/mL)
Staphylococcus aureus [4] = assay: Antimicrobial activity against Staphylococcus aureus in combination with Berberine and 10 ug/mL of compound 4 (alone MIC= 500 ug/mL)
Staphylococcus aureus [5] = assay: Antimicrobial activity against Staphylococcus aureus in combination with Rhein and 10 ug/mL of compound 4 (alone MIC= 4 ug/mL)
Priestia megaterium [6] = assay: Antimicrobial activity against Bacillus megaterium in combination with Berberine and 10 ug/mL of compound 4 (alone MIC= 125 ug/mL)
Staphylococcus aureus [7] = assay: Antimicrobial activity against Staphylococcus aureus in combination with Norfloxacin and 10 ug/mL of compound 4 (alone MIC= 1 ug/mL)
Bacillus subtilis [8] = assay: Antimicrobial activity against Bacillus subtilis in combination with Norfloxacin and 10 ug/mL of compound 4 (alone MIC= 1 ug/mL)
Priestia megaterium [9] = assay: Antimicrobial activity against Bacillus megaterium in combination with Rhein and 10 ug/mL of compound 4 (alone MIC= 4 ug/mL)
Bacillus subtilis [10] = assay: Antimicrobial activity against Bacillus subtilis in combination with Berberine and 10 ug/mL of compound 4 (alone MIC= 500 ug/mL)
Staphylococcus aureus [11] = assay: Antimicrobial activity against Staphylococcus aureus in combination with Ciprofloxacin and 10 ug/mL of compound 4 (alone MIC= 0.5 ug/mL)
Priestia megaterium [12] = assay: Antimicrobial activity against Bacillus megaterium in combination with Norfloxacin and 10 ug/mL of compound 4 (alone MIC= 1 ug/mL)
Priestia megaterium [13] = assay: Antimicrobial activity against Bacillus megaterium in combination with Ciprofloxacin and 10 ug/mL of compound 4 (alone MIC= 0.8 ug/mL)
Staphylococcus aureus [14] = assay: Antimicrobial activity against NorA Staphylococcus aureus in combination with Berberine and 10 ug/mL of compound 4 (alone MIC= 64 ug/mL)
Staphylococcus aureus [15] = assay: Antimicrobial activity against NorA Staphylococcus aureus in combination with Rhein and 10 ug/mL of compound 4 (alone MIC= 4 ug/mL)
Staphylococcus aureus [16] = assay: Antimicrobial activity against NorA Staphylococcus aureus in combination with Norfloxacin and 10 ug/mL of compound 4 (alone MIC= 0.4 ug/mL)

CCCCOC1OC(COC(=O)C(C)C)C(OC(=O)C(C)C)C(O)[C@H]1O[C@@H]1OC(C)C(OC(=O)C(C)C)C(OC(C)=O)C1OC(=O)CCCC (stereo partly specified) showed an MIC (Staphylococcus aureus [1]) of 0.1 µg/mL, an MIC (Bacillus subtilis [2]) of 4 µg/mL and an MIC (Bacillus subtilis [3]) of 0.1 µg/mL. It also gave an MIC (Staphylococcus aureus [4]) of 3.12 µg/mL, an MIC (Staphylococcus aureus [5]) of 1 µg/mL and an MIC (Priestia megaterium [6]) of 6.25 µg/mL. The MIC (Staphylococcus aureus [7]) was 0.2 µg/mL, the MIC (Bacillus subtilis [8]) was 0.2 µg/mL and the MIC (Priestia megaterium [9]) was 1 µg/mL. For the same molecule, the MIC (Bacillus subtilis [10]) was 125 µg/mL, the MIC (Staphylococcus aureus [11]) was 0.1 µg/mL and the MIC (Priestia megaterium [12]) was 0.2 µg/mL. For the same molecule, the MIC (Priestia megaterium [13]) was 0.1 µg/mL, the MIC (Staphylococcus aureus [14]) was 1.56 µg/mL and the MIC (Staphylococcus aureus [15]) was 1 µg/mL. The MIC (Staphylococcus aureus [16]) was 0.1 µg/mL.

Reference: ChEMBL document CHEMBL1144963, “Polyacylated neohesperidosides from Geranium caespitosum: bacterial multidrug resistance pump inhibitors” (2003)
